Results reported in patent publication EP0751947B1, “GLUCOSIDIC DERIVATIVES OF N-ACYL ALKYLAMINES EXERTING NEUROPROTECTIVE, NEUROTROPHIC AND ANTI-INFLAMMATORY ACTION, USEFUL IN ACUTE AND CHRONIC DISORDERS OF THE CENTRAL NERVOUS SYSTEM CONNECTED WITH EXCITOTOXICITY” (LIFEGROUP S.p.A., priority 1994, dated 1995).

Tests used:
[1] = solubility in water; conditions: for solubility: hot water
[2] = solubility in organic solvents; conditions: ethanol and dmso, organic solvent or mixture
[3] = tested on: cerebellar granule cells; assay: protection against apoptotic neuronal cell death induced by low potassium (KCl 5mM), MTT assay; format: cell-based, Mouse; conditions: compound 100 µM in DMSO 0.2%, MTT 24 hrs later
Method: The compounds as in Ex.3, 5, 8, 9 and 11 and GM1 were solubilized in DMSO 0.2% and added to the cells at the desired concentration.
Mouse (Balb 6, 8-9 post-natal day) cerebellar granule cells were plated in basal Eagle medium (BEM) + 10% fetal calf serum + 25 […] + 2 mM glutamine + 100 µg/ml gentamicine dishes and coated with poly/L lisine. Culture medium was replaced with serum-free medium 6-9 days after plating. […] Neuronal cell survival was measured 24 hrs later by MTT assay.

[4] = tested on: granule cells; assay: neuroprotective effect against Excitatory Amino Acids (L-glutamic acid)-induced neuronal death in vitro, cell survival by MTT; format: cell-based, mouse; conditions: for Survived Cells: co-treatment; for survived cells (%): A: Glu 500 µM, 5 min, incubated 24 hrs; for cytoprotection against Glu neurotoxicity: result in words, Glu 500 µM for 5 min, Table 5
Method: The compounds being evaluated, referred to as No. 1, 2, 3, 4, 5, 9 and 10 (with reference to the molecules whose syntheses have been described by way of example), Diltiazem, MK 801 and monosialoganglioside GM1, were solubilized in Locke's solution and added to the culture mediums at the desired concentrations according to different treatment schedule indicated in the Tables, with a view to checking: • dose-effect relationship; • time-effect relationship vs. incubation time (start and duration) and exposure to neurotoxin.
Granule cell cultures were prepared from post natal day 8-9 mouse Balb-6 cerebellum. The cells were suspended in EBM + 2mM L-glutamine, 100 U/ml penicillin, 50 µg/l gentamicin, 25 mM KCl and 10% fetal calf serum, plated on polylysine substrate, cultured for 8-10 days, and exposed to: i) L-glutamic acid (100 µM) at room temperature for 30-40 min. ii) L-glutamic acid (500 µM) at room temperature for 5 min.
The compounds being evaluated were incubated at different times (2 hrs before and at the same time as exposure) or for different times ranging from 5 to 60 minutes after exposure to L-glutamic acid. The cultures were then brought back to the original medium and the number of survived cells was assessed by colorimetric method (MTT) 24 hours after excitotoxic stimulation.

[5] = tested on: RBL-2H3 cells; assay: [3H]serotonin release assay in DNP-HSA stimulated RBL-2H3 cells; format: cell-based, Rat; conditions: co-treatment with DNP-HSA, 15 min; 100 µM or 60 µM (not assigned per compound)
Method: The compounds under evaluation as per Ex. 1, 3, 4, and 9 were dissolved in DMSO 0.2%, while the compound of Ex. 6 was dissolved in DMSO 1%, and they were added at the desired concentration of 100 µM or 60 µM.
Rat basophil leukemia cells of the secreting subline 2H3 were grown in stationary cultures at 37°C in Eagle's minimal essential medium supplemented to contain 2mM L-glutamine, 100 IU/ml penicillin and 20% (v/v) heat-inactivated fetal calf serum (FCS). Cells were passed twice a week.
A mouse monoclonal IgE which is specific for dinitrophenol (DNP) haptens (clone SPE-7; Sigma) was used. Dinitrophenylated human serum albumin (DNP-HSA) was employed as the triggering agent in these experiments. The level of conjunction was 30-40 moles of DNP per mole of albumin (Sigma). […] The culture supernatants were then collected in Eppendorf tubes, centrifuged (4 min, 3000 rpm) and 50 µl aliquots counted by standard liquid scintillation techniques. The cellular contents of each well were solubilized with 100 µl of 1% Triton X-100 in PBS, and a 50 µl aliquot counted as above. The percent of [3H]serotonin release was calculated.
Background (spontaneous) release was normally < 5 % of the total radioactivity incorporated, and was always substracted from the stimulated release value ("net" release).

[6] = physchem
[7] = physchem; conditions: hot water
[8] = compound 10 µM added 0 min after Glu removal

CCCCCCCCCC(=O)NCCO[C@@H]1O[C@H](CO)[C@@H](O)[C@H](O)[C@H]1O [Example 8, 2-0-(β-D-glucopyranosyl)-N-decanoyl-aminoethanol]
solubility [1]: > 10 mg/mL | solubility [2]: > 10 mg/mL | Cell survival (%) [3]: 51%

CCCCCCCCCCCCCCCC(=O)NCCO[C@@H]1O[C@H](CO)[C@@H](O)[C@H](O)[C@H]1O [Example 1, 2-O-(β-D-glucopyranosyl)-N-palmitoylaminoethanol]
solubility in water ([1]; at room temperature, result in words): poorly soluble | solubility [1]: > 10 mg/mL | solubility [2]: > 10 mg/mL | survived cells (%) pre. ([4]; Glu 100 µM, 40 min, room temperature, compound 100 µM added 2 hrs before and then removed, survival after 24 hrs): 44% | survived cells (%) co. ([4]; Glu 100 µM, 40 min, room temperature, compound 100 µM added at the same time, survival after 24 hrs): 57% | survived cells (%) pre.+ co. ([4]; Glu 100 µM, 40 min, room temperature, compound 100 µM, 2 hrs before and at the same time, survival after 24 hrs): 35% | Survived Cells ([4]; Glu 100 µM, room temperature, 40 min, compound 10 µM): 22% | Survived Cells ([4]; Glu 100 µM, room temperature, 40 min, compound 25 µM): 35% | Survived Cells ([4]; Glu 100 µM, room temperature, 40 min, compound 50 µM): 48% | Survived Cells ([4]; Glu 100 µM, room temperature, 40 min, compound 100 µM): 67% | Survived Cells ([4]; Glu 100 µM, room temperature, 40 min, compound 200 µM): 90% | % of inhibition (serotonin net release inhibition) [5]: 57%

monosialoganglioside GM1 [reference compound]
Cell survival (%) [3]: 78% | survived cells (%) ([4]; compound 100 µM added 0 min after Glu removal): 31% | cytoprotection against Glu neurotoxicity [4]: does not show any significant action

C[C@]12N[C@H](Cc3ccccc31)c1ccccc12 [MK 801, reference compound]
survived cells (%) [4, 8]: 66% | survived cells (%) ([4]; compound 10 µM added 15 min after Glu removal): 32% | survived cells (%) ([4]; compound 10 µM added 30 min after Glu removal): 30% | cytoprotection against Glu neurotoxicity [4]: protective, at least partially, only after co-treatment

CCCCCCCCCCCCCCCCCC(=O)NCCO[C@@H]1O[C@H](CO)[C@@H](O)[C@H](O)[C@H]1O [Example 11, 2-0-(β-D-glucopyranosyl)-N-stearoyl-aminoethanol]
Cell survival (%) [3]: 51% | solubility ([6]; dmso and hot isopropyl alcohol): > 10 mg/mL

O=C(CCCCCCCC(=O)NCCO[C@@H]1O[C@H](CO)[C@@H](O)[C@H](O)[C@H]1O)NCCO[C@@H]1O[C@H](CO)[C@@H](O)[C@H](O)[C@H]1O [Example 12, N,N'-bis-[2-0-(β-D-glucopyranosyl)-ethyl]-nonanediamide]
solubility [7]: > 10 mg/mL | solubility ([6]; dmso): > 10 mg/mL

CCCCC/C=C\C/C=C\C/C=C\C/C=C\CCCC(=O)NCCO[C@@H]1O[C@H](CO)[C@@H](O)[C@H](O)[C@H]1O [Example 13, 2-0-(β-D-glucopyranosyl)-N-arachidonoyl-aminoethanol]
water solubility ([1]; result in words): poorly soluble | solubility [2]: > 10 mg/mL

O=C(NCCO[C@@H]1O[C@H](CO)[C@H](O)[C@H](O)[C@H]1O)c1ccccc1 [Example 6, 2-0-(β-D-galactopyranosyl)-N-benzoyl-aminoethanol]
solubility [1]: > 10 mg/mL | solubility [2]: > 10 mg/mL | % of inhibition (serotonin net release inhibition) [5]: 54%

COc1ccc([C@@H]2Sc3ccccc3N(CCN(C)C)C(=O)[C@@H]2OC(C)=O)cc1 [Diltiazem, reference compound]
survived cells (%) [4, 8]: 35% | cytoprotection against Glu neurotoxicity [4]: does not show any significant action

CCCCCCCCCCCC(=O)NCCO[C@H]1O[C@H](CO)[C@@H](O)[C@H](O)[C@H]1O [Example 14, 2-0-(α-D-glucopyranosyl)-N-dodecanoyl-aminoethanol]
solubility [7]: > 10 mg/mL | solubility ([6]; ethanol and dmso): > 10 mg/mL
